Values joined by “and” are separate entries in the source; they are usually repeats but may differ in a detail not shown here. Equal values may be shown once. Inconclusive results and toxic doses are left out. Cut-off read from the data, not from the text of the source: active = T/C of 150% or more; inactive = T/C below 125%.
System: L1210 leukemia ip in BDF1 mice, survival T/C
Assay: NCI In Vivo Anticancer Drug Screen. Data for tumor model L1210 Leukemia (intraperitoneal) in B6D2F1 (BDF1) mice
Conditions: endpoint: mean survival time, higher = longer survival
In short: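 Ratio derived from survival: compound-dosed mice over vehicle-dosed mice, all bearing a transplantable tumor.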

[1] = dose: 100.0 mg/kg/injection, schedule: Q04DX003 (ip), vehicle: saline with Tween-80
[2] = dose: 50.0 mg/kg/injection, schedule: Q01DX009 (ip), vehicle: saline
[3] = dose: 100.0 mg/kg/injection, schedule: Q01DX009 (ip), vehicle: saline
[4] = dose: 200.0 mg/kg/injection, schedule: Q01DX009 (ip), vehicle: saline
[5] = dose: 100.0 mg/kg/injection, schedule: Q01DX001 (ip), vehicle: saline
[6] = dose: 400.0 mg/kg/injection, schedule: Q01DX001 (ip), vehicle: saline
[7] = dose: 100.0 mg/kg/injection, schedule: Q01DX009 (ip), vehicle: Klucel (hydroxypropylcellulose) (HPC)
[8] = dose: 200.0 mg/kg/injection, schedule: Q01DX001 (ip), vehicle: saline
[9] = dose: 100.0 mg/kg/injection, schedule: Q04DX003 (ip), vehicle: saline
[10] = dose: 200.0 mg/kg/injection, schedule: Q04DX003 (ip), vehicle: saline
[11] = dose: 10.0 mg/kg/injection, schedule: Q01DX Z (ip), vehicle: saline
[12] = dose: 400.0 mg/kg/injection, schedule: Q04DX003 (ip), vehicle: saline

Measured: T/C

C[N+](C)(C)CCOC(=O)c1ccccc1CBr
inactive: dose: 1.5 mg/kg/injection, schedule: Q04DX002 (ip), vehicle: other 98 % of control | dose: 3.0 mg/kg/injection, schedule: Q04DX002 (ip), vehicle: other 90 % of control | dose: 3.13 mg/kg/injection, schedule: Q01DX009 (ip), vehicle: saline 101 % of control | dose: 6.0 mg/kg/injection, schedule: Q04DX002 (ip), vehicle: other 105 % of control | dose: 6.25 mg/kg/injection, schedule: Q01DX009 (ip), vehicle: saline 97 % of control | dose: 6.25 mg/kg/injection, schedule: Q04DX003 (ip), vehicle: saline 105 % of control | dose: 12.5 mg/kg/injection, schedule: Q04DX003 (ip), vehicle: saline 91 % of control

COC1OC(COS(C)(=O)=O)C(OS(C)(=O)=O)C(OC(=O)c2ccccc2)C1OS(C)(=O)=O (centres undefined)
inactive: dose: 100.0 mg/kg/injection, schedule: Q04DX002 (ip), vehicle: Klucel (hydroxypropylcellulose) (HPC) 111 % of control | dose: 200.0 mg/kg/injection, schedule: Q04DX002 (ip), vehicle: Klucel (hydroxypropylcellulose) (HPC) 97 % of control | dose: 400.0 mg/kg/injection, schedule: Q04DX002 (ip), vehicle: Klucel (hydroxypropylcellulose) (HPC) 97 % of control

CCCCOP(=O)(/C=C/c1cccs1)OCCCC
inactive: [1] 100 % of control | dose: 200.0 mg/kg/injection, schedule: Q04DX003 (ip), vehicle: saline with Tween-80 94 % of control

C[C@]12CCC(=O)C=C1CC[C@@H]1[C@@H]2[C@@H](O)C[C@@]2(C)[C@H]1CC[C@]2(C)O
inactive: [2] 91 % of control | [3] 97 % of control | [4] 102 % of control

NC(Cc1ccccc1)c1nn[nH]n1 (centres undefined)
inactive: dose: 55.0 mg/kg/injection, schedule: Q01DX Z (ip), vehicle: methylcellulose (MC) 93 % of control | dose: 83.0 mg/kg/injection, schedule: Q01DX Z (ip), vehicle: methylcellulose (MC) 110 % of control

Oc1ccccc1Sc1ccccc1O
inactive: [5] 92 % of control | [6] 97 % of control

C=CCc1ccc(OC(=O)Nc2ccccc2C)c(OC)c1
inactive: [7] 96 % of control | dose: 200.0 mg/kg/injection, schedule: Q01DX009 (ip), vehicle: Klucel (hydroxypropylcellulose) (HPC) 95 % of control

COc1ccc2c3c1OC1C(O)=CCC4[C@H](C2)N(C)CC[C@@]314 (some centres undefined)
inactive: [5] 95 % of control | [8] 106 % of control

C1=C(c2ccc3ccccc3c2)Nc2ccccc2S1
inactive: dose: 100.0 mg/kg/injection, schedule: Q04DX002 (ip), vehicle: gum acacia 96 % of control | dose: 200.0 mg/kg/injection, schedule: Q04DX002 (ip), vehicle: gum acacia 96 % of control | dose: 400.0 mg/kg/injection, schedule: Q04DX002 (ip), vehicle: gum acacia 88 % of control

CN1CSCC1C(=O)O (centres undefined)
inactive: [9] 94 % of control | [10] 96 % of control

CCOC(=O)NC1CCC1NC(=O)OCC (centres undefined)
inactive: dose: 100.0 mg/kg/injection, schedule: Q01DX009 (ip), vehicle: saline with Tween-80 95 % of control | dose: 200.0 mg/kg/injection, schedule: Q01DX009 (ip), vehicle: saline with Tween-80 98 % of control | dose: 400.0 mg/kg/injection, schedule: Q01DX009 (ip), vehicle: saline with Tween-80 91 % of control

COc1c(Cl)cc([N+](=O)[O-])cc1Cl
inactive: dose: 25.0 mg/kg/injection, schedule: Q01DX009 (ip), vehicle: gum acacia 100 % of control | dose: 50.0 mg/kg/injection, schedule: Q01DX009 (ip), vehicle: gum acacia 106 % of control

C=CCNCC1OC(OC)C2OC(C)(C)OC12 (centres undefined)
inactive: [2] 101 % of control | [3] 104 % of control | [9] 109 % of control | [4] 104 % of control | [10] 102 % of control

CC(C)c1ccccc1O
inactive: dose: 100.0 mg/kg/injection, schedule: Q04DX003 (ip), vehicle: Klucel (hydroxypropylcellulose) (HPC) 94 % of control | dose: 200.0 mg/kg/injection, schedule: Q04DX003 (ip), vehicle: Klucel (hydroxypropylcellulose) (HPC) 95 % of control | dose: 400.0 mg/kg/injection, schedule: Q04DX003 (ip), vehicle: Klucel (hydroxypropylcellulose) (HPC) 90 % of control

c1ccc([P+](Cc2nc3ccccc3[nH]2)(c2ccccc2)c2ccccc2)cc1
inactive: dose: 25.0 mg/kg/injection, schedule: Q01DX009 (ip), vehicle: saline 92 % of control | dose: 25.0 mg/kg/injection, schedule: Q04DX003 (ip), vehicle: saline 97 % of control | dose: 50.0 mg/kg/injection, schedule: Q01DX009 (ip), vehicle: Klucel (hydroxypropylcellulose) (HPC) 102 % of control | dose: 50.0 mg/kg/injection, schedule: Q04DX003 (ip), vehicle: saline 92 % of control | [7] 100 % of control | [9] 94 % of control

CCN(CC)C1=C(Cl)C(=O)C(=O)c2cccnc21
inactive: dose: 18.8 mg/kg/injection, schedule: Q04DX003 (ip), vehicle: saline 97 % of control | dose: 37.5 mg/kg/injection, schedule: Q04DX003 (ip), vehicle: saline 103 % of control | dose: 75.0 mg/kg/injection, schedule: Q01DX001 (ip), vehicle: saline 97 % of control

O=C(CCCCCCCCC(=O)NCC1(c2ccccc2)CCNCC1)NCC1(c2ccccc2)CCNCC1
inactive: dose: 1.25 mg/kg/injection, schedule: Q01DX Z (ip), vehicle: saline 89 % of control | dose: 2.5 mg/kg/injection, schedule: Q01DX Z (ip), vehicle: saline 88 % of control | [11] 97 % of control and 88 % of control | dose: 30.0 mg/kg/injection, schedule: Q01DX Z (ip), vehicle: saline 87 % of control

C=CCNC(=S)Nc1cccc([N+](=O)[O-])c1
inactive: dose: 50.0 mg/kg/injection, schedule: Q01DX001 (ip), vehicle: carboxymethylcellulose (CMC) 111 % of control | dose: 100.0 mg/kg/injection, schedule: Q01DX001 (ip), vehicle: carboxymethylcellulose (CMC) 94 % of control | dose: 200.0 mg/kg/injection, schedule: Q01DX001 (ip), vehicle: carboxymethylcellulose (CMC) 94 % of control | dose: 400.0 mg/kg/injection, schedule: Q01DX001 (ip), vehicle: carboxymethylcellulose (CMC) 100 % of control

CSC(Cl)=C(Cl)Cl
inactive: dose: 25.0 mg/kg/injection, schedule: Q04DX003 (ip), vehicle: saline with Tween-80 101 % of control | dose: 50.0 mg/kg/injection, schedule: Q04DX003 (ip), vehicle: saline with Tween-80 101 % of control | [5] 90 % of control | [1] 97 % of control

CCOC(=O)C1CN(C)C(=O)C1=O (centres undefined)
inactive: dose: 50.0 mg/kg/injection, schedule: Q01DX001 (ip), vehicle: saline 100 % of control | [5] 93 % of control | [8] 87 % of control | [6] 114 % of control

COC(=O)c1ccncc1
inactive: [9] 101 % of control | [10] 98 % of control | [12] 104 % of control

O/N=c1/cc(-c2ccc(Cl)cc2)ss1
inactive: [3] 91 % of control | [9] 93 % of control | [4] 89 % of control | [10] 95 % of control | dose: 400.0 mg/kg/injection, schedule: Q01DX009 (ip), vehicle: saline 96 % of control | [12] 97 % of control

O=C(Nc1ccc(C2=NCCN2)c(O)c1)c1cccc(C(=O)Nc2ccc(C3=NCCN3)c(O)c2)c1
inactive: dose: 10.0 mg/kg/injection, schedule: Q01DX Z (ip), vehicle: carboxymethylcellulose (CMC) 101 % of control | dose: 20.0 mg/kg/injection, schedule: Q01DX Z (ip), vehicle: carboxymethylcellulose (CMC) 109 % of control | dose: 40.0 mg/kg/injection, schedule: Q01DX Z (ip), vehicle: carboxymethylcellulose (CMC) 101 % of control | dose: 80.0 mg/kg/injection, schedule: Q01DX Z (ip), vehicle: carboxymethylcellulose (CMC) 101 % of control

Nc1ccc(-c2nc3nc(N)nc(N)c3nc2-c2ccc(N)cc2)cc1
inactive: dose: 30.0 mg/kg/injection, schedule: Q01DX Z (ip), vehicle: carboxymethylcellulose (CMC) 102 % of control | dose: 60.0 mg/kg/injection, schedule: Q01DX Z (ip), vehicle: carboxymethylcellulose (CMC) 95 % of control | dose: 120.0 mg/kg/injection, schedule: Q01DX Z (ip), vehicle: carboxymethylcellulose (CMC) 104 % of control | dose: 240.0 mg/kg/injection, schedule: Q01DX Z (ip), vehicle: carboxymethylcellulose (CMC) 101 % of control

NS(=O)(=O)c1ccc(C(=O)NO)cc1
inactive: [9] 100 % of control | [10] 110 % of control | [12] 102 % of control

COc1c(N)cc2c(c1C)OCOC2
inactive: [5] 97 % of control | [8] 100 % of control | [6] 105 % of control

Nc1cc(C(=O)Nc2cccc(C3=NCCN3)c2)ccc1C(=O)Nc1cccc(C2=NCCN2)c1
inactive: dose: 7.5 mg/kg/injection, schedule: Q01DX Z (ip), vehicle: saline 113 % of control | [11] 110 % of control

CCCOS(C)(=O)=O
inactive: [5] 100 % of control | [8] 100 % of control | [6] 100 % of control

Source: PubChem BioAssay AID248 (DTP/NCI, 2004)
